Read-outs that look alike come from different tables or passages of the source.
Target: T1, PSII reaction centers of thylakoid extract (Spinacia oleracea, UniProt P69560)
T1 construct: both lyophilized thylakoid extracts were resuspended in: Tris-HCl 50 mM pH 7.5; sorbitol 330 mM; from tissue; host or cells: plant thylakoid membrane extract (lyophilized, rehydrated)
Assay: Inhibition of Fv/Fm (photosynthetic efficiency) of thylakoid extract by atrazine
Type: biochemical, Spinacia oleracea L.
Experimental: Each re-suspended extract was dark-incubated for 15 min with the appropriate atrazine concentration for 15 minutes.
Absorbed light was measured with a FMS1 Hansatech Instrument (Schreiber et al., 1986; lab based modulated fluorescence); under excitation light beam at 470 nm. In dark adapted condition, the following fluorescence parameters can be obtained or calculated: • Fo: minimal fluorescence when PSII reaction centers are in the fully oxidized state. It is obtained at the beginning of fluorescence measurement when only the modulating beam is illuminated. • Fm: obtained with an intense saturating pulse (2 000 μmol photons m^2/s) allowing maxi mum PSII fluorescence emission. • Fv: variable fluorescence is obtained by the difference between Fm and Fo and corresponds to maximum capacity for photochemical energy quenching.
Fv/Fm: this ratio is proportional to quantum efficiency of PSII reaction centers (Butker 1977, 1978) and represents a correlation between the chlorophyll fluorescence and the photochemical reactions (for instance oxygen evolution).
Any molecule affecting the photosystems will modify either Fo or Fm which modification necessarily disrupts (increases or decreases) the photosynthetic efficiency. […]

## CCNc1nc(Cl)nc(NC(C)C)n1 [atrazine]
IC50 (atrazine concentration inhibiting 50% of the efficiency parameter), extract after 7 days at 20° C., 5 μg/mL chlorophyll, 15 min dark incubation
  IC50: 116 nM
Several batches of thylakoid extract, 95% confidence, FIG. 4, read-out: IC50 of an accepted lot (within 2σ of the mean IC50)
  IC50: 76.5 to 218 nM

— patent US20180362921A1, “EXTRACTION AND PROCESS FOR ACTIVE THYLAKOID MEMBRANES” (GROUPE SANTÉ DEVONIAN INC., priority 2015, published 2018)
